# Results published in patent US8952024B2, “Herbicidal pyrimidone derivatives” (E I du Pont de Nemours and Company, priority 2009, dated 2015).
# Legend:
# Assay type in all cases: in vivo
# [1] = system: Surinam grass (Brachiaria decumbens); test: Test B pre-/postemergence plant response
# In short: (§1)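 Plants treated either at seeding (loam/sand soil) or postemergence at 2 to 18 cm height, using a surfactant-containing non-phytotoxic solvent formulation. Evaluation was visual after 13 to 15 days, 0 to 100 scale relative to controls.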
# [2] = system: blackgrass (Alopecurus myosuroides); test: Test B pre-/postemergence plant response; details: for Blackgrass plant response rating (0 to 100 scale): 0 is no effect
# In short: as §1
# [3] = system: cocklebur (Xanthium strumarium); test: Test B pre-/postemergence plant response
# In short: as §1
# kochia (Kochia scoparia) = test: Test B pre-/postemergence plant response
# In short: as §1
# [4] = system: lambsquarters (Chenopodium album); test: Test B pre-/postemergence plant response
# In short: as §1
# [5] = system: pigweed (Amaranthus retroflexus); test: Test B pre-/postemergence plant response
# In short: as §1
# soybean (Glycine max) = test: Test B pre-/postemergence plant response
# In short: as §1
# [6] = system: velvetleaf (Abutilon theophrasti); test: Test B pre-/postemergence plant response
# In short: as §1
# [7] = system: wheat (Triticum aestivum); test: Test B pre-/postemergence plant response
# In short: as §1
# wild oat (Avena fatua) = test: Test B pre-/postemergence plant response
# In short: as §1
# [8] = system: canarygrass (Phalaris minor); test: Test B postemergence plant response
# In short: (§2)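 Visual ratings from 0 (no effect) to 100 (complete control), made against controls 13–15 days after treatment, kept in a greenhouse. Compounds were applied postemergence to potted plants at the 1- to 4-leaf stage (2–18 cm).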
# [9] = system: chickweed (Stellaria media); test: Test B postemergence plant response
# In short: as §2
# [10] = system: windgrass (Apera spica-venti); test: Test B postemergence plant response
# In short: as §2
# [11] = 31 g ai/ha, postemergence, scale 0 to 100, 0 is no effect, 100 is complete control
# [12] = 62 g ai/ha, postemergence, 0 is no effect, 100 is complete control, 13 to 15 days
# [13] = Postemergence, 250 g ai/ha, scale 0 to 100 (0 no effect, 100 complete control)
# [14] = 62 g ai/ha, postemergence, 100 is complete control, 13 to 15 days
# [15] = Postemergence, 125 g ai/ha, visual rating after 13 to 15 days, scale 0 (no effect) to 100 (complete control)
# [16] = 250 g ai/ha, Preemergence, 0 to 100 scale
# [17] = Postemergence, 62 g ai/ha, scale 0 (no effect) to 100 (complete control), 13 to 15 days
# [18] = Preemergence, 31 g ai/ha, scale 0 to 100 (0 no effect, 100 complete control)
# [19] = Preemergence, 125 g ai/ha, 0 to 100 scale
# [20] = Postemergence, 31 g ai/ha, scale 0 to 100 (0 no effect, 100 complete control)
# [21] = Postemergence, 250 g ai/ha, scale 0 to 100
# [22] = Preemergence, 62 g ai/ha, scale 0 to 100 (0 no effect, 100 complete control)
# [23] = Postemergence, 31 g ai/ha, 0 to 100 scale (0 no effect, 100 complete control)
# [24] = Postemergence, 125 g ai/ha, scale 0 to 100 (0 no effect, 100 complete control)
# [25] = Postemergence, 250 g ai/ha, scale 0 to 100 (0 no effect, 100 complete control), 13 to 15 days
smiles,measurement,setting,value
O=C1CCCC(OC(=O)C2CC2)=C1C(=O)c1cnc(-c2ccccc2)n(-c2ccccc2)c1=O [Compound 88],"Plant response rating, Surinam Grass",[1]; [11],95
same,Surinam Grass plant response rating (0 to 100 scale),[1]; [12],95
same,"Plant response rating, Surinam Grass",[1]; [13],98
same,"Plant response rating, Blackgrass",[2]; [11],0
same,Blackgrass plant response rating (0 to 100 scale),[2]; [14],5
same,"Plant response rating, Blackgrass",[2]; [15],5
same,"Plant response rating, Blackgrass",[2]; [13],10
same,"Plant response rating, Cocklebur",[3]; [11],90
same,Cocklebur plant response rating (0 to 100 scale),[3]; [12],90
same,"Plant response rating, Cocklebur",[3]; [15],95
same,"Plant response rating, Cocklebur",[3]; [13],95
same,"Plant response rating, Kochia",kochia (Kochia scoparia); [11],75
same,Kochia plant response rating (0 to 100 scale),kochia (Kochia scoparia); [12],75
same,"Plant response rating, Kochia",kochia (Kochia scoparia); [13],85
same,"Plant response rating, Lambsquarters",[4]; [11],95
same,Lambsquarters plant response rating (0 to 100 scale),[4]; [12],98
same,"Plant response rating, Lambsquarters",[4]; [13],100
same,"Plant response rating, Pigweed",[5]; [11],98
same,Pigweed plant response rating (0 to 100 scale),[5]; [12],100
same,"Plant response rating, Pigweed",[5]; [13],100
same,"Plant response rating, Soybean",soybean (Glycine max); [11],75
same,Soybean plant response rating (0 to 100 scale),soybean (Glycine max); [12],90
same,"Plant response rating, Soybean",soybean (Glycine max); [13],98
same,"Plant response rating, Velvetleaf",[6]; [11],80
same,Velvetleaf plant response rating (0 to 100 scale),[6]; [12],90
same,"Plant response rating, Velvetleaf",[6]; [13],98
same,"Plant response rating, Wheat",[7]; [11],0
same,Wheat plant response rating (0 to 100 scale),[7]; [12],5
same,"Plant response rating, Wheat",[7]; [13],5
same,"Plant response rating, Oat, Wild",wild oat (Avena fatua); [11],50
same,"Oat, Wild plant response rating (0 to 100 scale)",wild oat (Avena fatua); [12],55
same,"Plant response rating, Oat, Wild",wild oat (Avena fatua); [13],80
same,"Plant response rating, Canarygrass",[8]; [11],60
same,Canarygrass plant response rating (0 to 100 scale),[8]; [12],70
same,"Plant response rating, Canarygrass",[8]; [15],80
same,"Plant response rating, Canarygrass",[8]; [13],90
same,"Plant response rating, Chickweed",[9]; [11],75
same,Chickweed plant response rating (0 to 100 scale),[9]; [12],85
same,"Plant response rating, Chickweed",[9]; [15],95
same,"Plant response rating, Chickweed",[9]; [13],95
same,"Plant response rating, Windgrass",[10]; [11],40
same,Windgrass plant response rating (0 to 100 scale),[10]; [12],60
same,"Plant response rating, Windgrass",[10]; [13],70
CCCCc1ncc(C(=O)C2=C(O)CCCC2=O)c(=O)n1-c1ccccc1 [Compound 42],"Plant response rating, Surinam Grass",[1]; [16],75
same,"Plant response rating, Surinam Grass",[1]; [17],40
same,"Plant response rating, Surinam Grass",[1]; [15],45
same,"Plant response rating, Surinam Grass",[1]; [18],0
same,Surinam Grass plant response rating,[1]; [19],10
same,"Plant response rating, Blackgrass",[2]; [16],5
same,"Plant response rating, Blackgrass",[2]; [20],5
same,"Plant response rating, Blackgrass",[2]; [17],10
same,"Plant response rating, Blackgrass",[2]; [15],15
same,Blackgrass plant response rating,[2]; [21],20
same,"Plant response rating, Blackgrass",[2]; [18],0
same,"Plant response rating, Blackgrass",[2]; [22],0
same,Blackgrass plant response rating,[2]; [19],0
same,"Plant response rating, Cocklebur",[3]; [20],0
same,"Plant response rating, Cocklebur",[3]; [17],45
same,"Plant response rating, Cocklebur",[3]; [15],85
same,Cocklebur plant response rating,[3]; [21],95
same,"Plant response rating, Cocklebur",[3]; [18],0
same,"Plant response rating, Cocklebur",[3]; [22],0
same,"Plant response rating, Kochia",kochia (Kochia scoparia); [17],100
same,"Plant response rating, Kochia",kochia (Kochia scoparia); [15],100
same,Kochia plant response rating,kochia (Kochia scoparia); [21],100
same,"Plant response rating, Lambsquarters",[4]; [16],100
same,"Plant response rating, Lambsquarters",[4]; [17],95
same,"Plant response rating, Lambsquarters",[4]; [15],100
same,Lambsquarters plant response rating,[4]; [21],100
same,"Plant response rating, Lambsquarters",[4]; [18],100
same,"Plant response rating, Lambsquarters",[4]; [22],100
same,Lambsquarters plant response rating,[4]; [19],100
same,"Plant response rating, Pigweed",[5]; [16],100
same,"Plant response rating, Pigweed",[5]; [17],95
same,"Plant response rating, Pigweed",[5]; [15],100
same,"Plant response rating, Pigweed",[5]; [18],100
same,Pigweed plant response rating,[5]; [19],100
same,"Plant response rating, Soybean",soybean (Glycine max); [16],0
same,"Plant response rating, Soybean",soybean (Glycine max); [17],90
same,"Plant response rating, Soybean",soybean (Glycine max); [15],95
same,"Plant response rating, Soybean",soybean (Glycine max); [18],0
same,Soybean plant response rating,soybean (Glycine max); [19],0
same,"Plant response rating, Velvetleaf",[6]; [16],90
same,"Plant response rating, Velvetleaf",[6]; [17],80
same,"Plant response rating, Velvetleaf",[6]; [15],95
same,"Plant response rating, Velvetleaf",[6]; [18],75
same,Velvetleaf plant response rating,[6]; [19],85
same,"Plant response rating, Wheat",[7]; [16],0
same,"Plant response rating, Wheat",[7]; [17],0
same,"Plant response rating, Wheat",[7]; [15],5
same,"Plant response rating, Wheat",[7]; [18],0
same,Wheat plant response rating,[7]; [19],0
same,"Plant response rating, Oat, Wild",wild oat (Avena fatua); [16],0
same,"Plant response rating, Oat, Wild",wild oat (Avena fatua); [17],10
same,"Plant response rating, Oat, Wild",wild oat (Avena fatua); [15],10
same,"Plant response rating, Oat, Wild",wild oat (Avena fatua); [18],0
same,"Oat, Wild plant response rating",wild oat (Avena fatua); [19],0
same,"Plant response rating, Canarygrass",[8]; [20],0
same,"Plant response rating, Canarygrass",[8]; [17],0
same,"Plant response rating, Canarygrass",[8]; [15],0
same,Canarygrass plant response rating,[8]; [21],0
same,"Plant response rating, Chickweed",[9]; [20],60
same,"Plant response rating, Chickweed",[9]; [17],70
same,"Plant response rating, Chickweed",[9]; [15],80
same,Chickweed plant response rating,[9]; [21],95
same,"Plant response rating, Windgrass",[10]; [17],60
same,"Plant response rating, Windgrass",[10]; [15],70
O=C1CCCC(O)=C1C(=O)c1cnc(-c2ccccc2)n(C2CCSCC2)c1=O [Compound 164],"Plant response rating, Surinam Grass",[1]; [23],60
same,"Plant response rating, Surinam Grass",[1]; [24],95
same,"Plant response rating, Surinam Grass",[1]; [25],98
same,Blackgrass plant response rating (0 to 100 scale),[2]; [14],5
same,"Plant response rating, Blackgrass",[2]; [23],5
same,"Plant response rating, Blackgrass",[2]; [24],10
same,"Plant response rating, Blackgrass",[2]; [25],35
same,"Plant response rating, Cocklebur",[3]; [23],98
same,"Plant response rating, Cocklebur",[3]; [24],100
same,"Plant response rating, Cocklebur",[3]; [25],100
same,"Plant response rating, Kochia",kochia (Kochia scoparia); [23],98
same,"Plant response rating, Kochia",kochia (Kochia scoparia); [24],100
same,"Plant response rating, Kochia",kochia (Kochia scoparia); [25],100
same,"Plant response rating, Lambsquarters",[4]; [23],98
same,"Plant response rating, Lambsquarters",[4]; [24],100
same,"Plant response rating, Lambsquarters",[4]; [25],100
same,"Plant response rating, Pigweed",[5]; [23],98
same,"Plant response rating, Pigweed",[5]; [24],100
same,"Plant response rating, Pigweed",[5]; [25],100
same,"Plant response rating, Soybean",soybean (Glycine max); [23],80
same,"Plant response rating, Soybean",soybean (Glycine max); [24],100
same,"Plant response rating, Soybean",soybean (Glycine max); [25],100
same,"Plant response rating, Velvetleaf",[6]; [23],70
same,"Plant response rating, Velvetleaf",[6]; [24],80
same,"Plant response rating, Velvetleaf",[6]; [25],95
same,"Plant response rating, Wheat",[7]; [23],0
same,"Plant response rating, Wheat",[7]; [24],35
same,"Plant response rating, Wheat",[7]; [25],50
same,"Plant response rating, Oat, Wild",wild oat (Avena fatua); [23],25
same,"Plant response rating, Oat, Wild",wild oat (Avena fatua); [24],85
same,"Plant response rating, Oat, Wild",wild oat (Avena fatua); [25],90
same,"Plant response rating, Canarygrass",[8]; [23],40
same,"Plant response rating, Canarygrass",[8]; [24],90
same,"Plant response rating, Canarygrass",[8]; [25],98
same,"Plant response rating, Chickweed",[9]; [23],80
same,"Plant response rating, Chickweed",[9]; [24],98
same,"Plant response rating, Chickweed",[9]; [25],100
same,"Plant response rating, Windgrass",[10]; [23],5
same,"Plant response rating, Windgrass",[10]; [24],75
same,"Plant response rating, Windgrass",[10]; [25],85
